Article PMC7953826 (Nature cell biology, 2020)

What was measured:
hDyn2 = molecular target: T1, hDyn2 (Homo sapiens, UniProt P50570); experiment: negative-stain EM, GTP-induced helix disassembly on actin bundles; format: binding; conditions: 1 mM GTP, with actin, room temperature, 30 min
T1 sequence (P50570 1-870): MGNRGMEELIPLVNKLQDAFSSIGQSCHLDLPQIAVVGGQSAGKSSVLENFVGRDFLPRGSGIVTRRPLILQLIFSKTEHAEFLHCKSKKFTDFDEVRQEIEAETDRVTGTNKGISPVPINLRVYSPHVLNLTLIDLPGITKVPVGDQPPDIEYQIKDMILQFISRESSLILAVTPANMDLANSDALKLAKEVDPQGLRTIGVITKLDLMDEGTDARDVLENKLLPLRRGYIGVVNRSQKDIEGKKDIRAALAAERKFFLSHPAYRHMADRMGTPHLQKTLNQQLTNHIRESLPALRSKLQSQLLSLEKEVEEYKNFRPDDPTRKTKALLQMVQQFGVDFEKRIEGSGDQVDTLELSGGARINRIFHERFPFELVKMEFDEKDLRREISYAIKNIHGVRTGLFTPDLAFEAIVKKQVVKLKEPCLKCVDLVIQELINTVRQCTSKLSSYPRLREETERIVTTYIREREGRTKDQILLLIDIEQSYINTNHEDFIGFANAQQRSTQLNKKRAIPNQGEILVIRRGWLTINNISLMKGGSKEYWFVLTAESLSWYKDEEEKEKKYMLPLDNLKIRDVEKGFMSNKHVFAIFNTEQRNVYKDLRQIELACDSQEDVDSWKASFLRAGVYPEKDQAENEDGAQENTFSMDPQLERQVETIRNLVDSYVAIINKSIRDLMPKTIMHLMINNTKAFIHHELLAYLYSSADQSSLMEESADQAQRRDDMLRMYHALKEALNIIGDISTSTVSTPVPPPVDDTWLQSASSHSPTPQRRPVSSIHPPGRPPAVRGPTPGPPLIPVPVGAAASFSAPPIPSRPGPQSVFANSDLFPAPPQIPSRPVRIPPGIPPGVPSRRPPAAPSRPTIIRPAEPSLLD

hDyn1 = molecular target: T2, hDyn1 (Homo sapiens, UniProt Q05193); experiment: as above; format: binding; conditions: 1 mM GTP, with actin, room temperature, 30 min
T2 sequence (Q05193 1-864): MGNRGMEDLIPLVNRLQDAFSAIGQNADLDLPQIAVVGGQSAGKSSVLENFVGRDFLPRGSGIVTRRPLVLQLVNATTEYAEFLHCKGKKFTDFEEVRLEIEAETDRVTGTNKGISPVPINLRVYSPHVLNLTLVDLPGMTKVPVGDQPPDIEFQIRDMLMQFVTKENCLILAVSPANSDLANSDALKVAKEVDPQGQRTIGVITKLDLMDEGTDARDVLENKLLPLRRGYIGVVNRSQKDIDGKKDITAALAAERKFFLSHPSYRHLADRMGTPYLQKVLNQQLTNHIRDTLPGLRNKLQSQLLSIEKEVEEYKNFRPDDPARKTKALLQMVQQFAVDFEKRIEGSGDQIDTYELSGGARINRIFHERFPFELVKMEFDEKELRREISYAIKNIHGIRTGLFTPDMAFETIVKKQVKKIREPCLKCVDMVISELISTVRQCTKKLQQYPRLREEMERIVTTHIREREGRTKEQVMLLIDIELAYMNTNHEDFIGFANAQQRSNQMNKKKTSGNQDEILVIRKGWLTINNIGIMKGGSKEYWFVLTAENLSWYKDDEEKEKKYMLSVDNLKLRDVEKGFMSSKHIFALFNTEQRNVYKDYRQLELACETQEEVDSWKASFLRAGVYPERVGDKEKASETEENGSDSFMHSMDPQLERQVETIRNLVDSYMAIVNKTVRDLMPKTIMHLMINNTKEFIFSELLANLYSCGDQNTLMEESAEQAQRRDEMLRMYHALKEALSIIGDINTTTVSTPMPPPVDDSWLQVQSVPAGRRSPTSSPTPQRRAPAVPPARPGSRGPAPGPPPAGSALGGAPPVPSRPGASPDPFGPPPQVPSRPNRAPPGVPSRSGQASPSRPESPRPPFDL

Nc1nc2c(ncn2[C@@H]2O[C@H](COP(=O)(O)OP(=O)(O)OP(=O)(O)O)[C@@H](O)[C@H]2O)c(=O)[nH]1 [GTP]
negative-stain EM, GTP-induced helix disassembly on actin bundles (hDyn2): hDyn1 and hDyn2 helices along actin bundles were disassembled upon GTP addition | negative-stain EM, GTP-induced helix disassembly on actin bundles (hDyn1): hDyn1 and hDyn2 helices along actin bundles were disassembled upon GTP addition
